Source: ChEMBL document CHEMBL1201862, “PubChem BioAssay data set” (2004)
One block for each compound: values may come before it. Activity calls are given as the source filed them.

Tests used:
[1] = fluconazole-exposed Candida albicans growth modulators – fluorescence, retest, confirmation (AID 2467); assay type: functional, cell-based
[2] = molecular target: ATP-dependent molecular chaperone HSP82 (Candida albicans (strain WO-1) (Yeast), UniProt C4YTQ8); assay: steroid-induced GRE reporter decrease in yeast – S. cerevisiae, luminescence, Hsp90 inhibitor project, dose response (AID 2400); assay type: functional, cell-based;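 also: beta-galactosidase luminescence from glucocorticoid response element reporter as proxy for Hsp90 function; inhibitor potency where signal loss means Hsp90 inhibition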
ATP-dependent molecular chaperone HSP82, sequence (C4YTQ8 whole entry): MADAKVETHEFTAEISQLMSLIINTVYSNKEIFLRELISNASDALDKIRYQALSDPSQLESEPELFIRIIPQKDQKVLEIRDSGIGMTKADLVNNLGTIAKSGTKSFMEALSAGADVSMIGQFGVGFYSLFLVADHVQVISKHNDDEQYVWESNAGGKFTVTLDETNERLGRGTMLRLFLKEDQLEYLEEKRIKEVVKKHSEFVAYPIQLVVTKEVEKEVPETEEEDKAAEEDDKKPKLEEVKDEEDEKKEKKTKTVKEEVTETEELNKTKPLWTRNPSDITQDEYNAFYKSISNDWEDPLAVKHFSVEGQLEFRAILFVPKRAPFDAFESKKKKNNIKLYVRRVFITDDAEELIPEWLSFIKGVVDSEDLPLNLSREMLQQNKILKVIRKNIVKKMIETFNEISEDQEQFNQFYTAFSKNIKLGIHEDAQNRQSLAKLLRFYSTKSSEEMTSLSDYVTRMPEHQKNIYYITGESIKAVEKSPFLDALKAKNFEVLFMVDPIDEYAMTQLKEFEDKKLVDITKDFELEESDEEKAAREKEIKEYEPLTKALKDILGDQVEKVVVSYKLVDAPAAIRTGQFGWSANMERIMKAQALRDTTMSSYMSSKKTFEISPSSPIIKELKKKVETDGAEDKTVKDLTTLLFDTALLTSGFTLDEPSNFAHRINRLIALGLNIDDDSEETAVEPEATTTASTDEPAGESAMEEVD

[3] = NIH-3T3 fibroblast cytotoxicity, dose response, cytotoxicity control, cell-based, fluorescence, Alamar Blue, secondary assay (AID 2327); assay type: functional;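 also: NIH-3T3 mouse fibroblasts cultured with fluconazole at 8 µg/mL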
[4] = molecular target: T1, Serine/threonine-protein phosphatase (Candida dubliniensis (strain CD36 / CBS 7987 / NCPF 3949 / NRRLY-17841) (Yeast), UniProt B9W6M3); assay: blockers of CaCl2-induced CDRE-lacZ signaling – S. cerevisiae, luminescence, secondary, dose response (AID 2388); assay type: functional, cell-based;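 also: yeast reporter cells carrying a calcineurin-responsive lacZ construct stimulated with calcium chloride; luminescent beta-galactosidase reporter signal in whole cells rather than isolated phosphatase activity; potency for inhibition where a drop in reporter signal means calcineurin blockade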
T1 sequence (B9W6M3 whole entry): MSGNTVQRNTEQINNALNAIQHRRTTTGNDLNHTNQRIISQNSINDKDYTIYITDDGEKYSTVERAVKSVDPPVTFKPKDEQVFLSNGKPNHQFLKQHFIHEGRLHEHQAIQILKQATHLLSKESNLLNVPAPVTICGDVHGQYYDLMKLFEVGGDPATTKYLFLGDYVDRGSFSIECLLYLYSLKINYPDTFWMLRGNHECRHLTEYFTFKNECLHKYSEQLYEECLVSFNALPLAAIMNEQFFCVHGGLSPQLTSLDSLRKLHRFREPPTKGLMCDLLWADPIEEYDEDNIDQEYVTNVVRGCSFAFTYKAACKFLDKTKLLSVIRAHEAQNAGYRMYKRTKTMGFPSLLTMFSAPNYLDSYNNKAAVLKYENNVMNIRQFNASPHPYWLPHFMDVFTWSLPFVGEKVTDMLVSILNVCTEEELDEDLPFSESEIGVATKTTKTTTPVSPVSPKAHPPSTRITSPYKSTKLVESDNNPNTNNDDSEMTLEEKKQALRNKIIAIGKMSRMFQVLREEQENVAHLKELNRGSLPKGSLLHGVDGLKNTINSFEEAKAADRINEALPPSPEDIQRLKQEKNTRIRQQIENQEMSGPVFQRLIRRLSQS

[5] = molecular target: Potassium voltage-gated channel subfamily KQT member 2 (Rattus norvegicus, UniProt O88943); assay: blockers of KCNQ2 channel current – cell-based, automated electrophysiology, set II, rat KCNQ2, dose response (AID 588637); assay type: functional
Potassium voltage-gated channel subfamily KQT member 2, sequence (O88943 whole entry): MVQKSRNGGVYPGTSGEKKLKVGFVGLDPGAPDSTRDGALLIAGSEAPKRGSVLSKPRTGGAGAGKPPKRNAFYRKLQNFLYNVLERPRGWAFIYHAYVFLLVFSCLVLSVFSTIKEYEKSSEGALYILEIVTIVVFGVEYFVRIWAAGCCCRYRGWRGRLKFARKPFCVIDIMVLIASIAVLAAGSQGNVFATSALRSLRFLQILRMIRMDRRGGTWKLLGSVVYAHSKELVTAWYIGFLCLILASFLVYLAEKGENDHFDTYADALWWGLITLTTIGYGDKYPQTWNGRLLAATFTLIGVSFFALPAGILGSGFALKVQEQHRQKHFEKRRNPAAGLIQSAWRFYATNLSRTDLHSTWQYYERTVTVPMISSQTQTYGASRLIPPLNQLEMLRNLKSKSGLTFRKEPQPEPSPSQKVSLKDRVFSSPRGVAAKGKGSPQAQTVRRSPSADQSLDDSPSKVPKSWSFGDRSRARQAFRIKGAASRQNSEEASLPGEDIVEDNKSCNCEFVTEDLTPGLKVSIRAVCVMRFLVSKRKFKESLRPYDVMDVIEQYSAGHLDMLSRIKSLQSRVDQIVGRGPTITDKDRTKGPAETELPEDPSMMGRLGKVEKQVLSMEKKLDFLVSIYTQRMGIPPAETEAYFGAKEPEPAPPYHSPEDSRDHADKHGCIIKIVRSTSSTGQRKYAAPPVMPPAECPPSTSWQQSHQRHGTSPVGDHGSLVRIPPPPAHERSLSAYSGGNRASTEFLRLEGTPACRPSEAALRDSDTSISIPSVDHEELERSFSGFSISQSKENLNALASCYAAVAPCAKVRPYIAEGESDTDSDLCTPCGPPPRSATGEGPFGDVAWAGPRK

H9c2 = assay: cells; assay type: functional, cell-based; details: Rattus norvegicus, H9c2, Myocardium;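 also: confirmatory concentration-response retest of ultra-high-throughput screening hits for modulation of myocardial damage; cell death induced by hydrogen peroxide oxidative stress; compound pretreatment for 60 min then peroxide exposure for 2 h; potency is for protecting the cells against peroxide damage rather than for killing them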
[6] = molecular target: T2, Apoptotic protease-activating factor 1 (Homo sapiens, UniProt O14727); assay type: functional
T2 sequence (O14727 whole entry): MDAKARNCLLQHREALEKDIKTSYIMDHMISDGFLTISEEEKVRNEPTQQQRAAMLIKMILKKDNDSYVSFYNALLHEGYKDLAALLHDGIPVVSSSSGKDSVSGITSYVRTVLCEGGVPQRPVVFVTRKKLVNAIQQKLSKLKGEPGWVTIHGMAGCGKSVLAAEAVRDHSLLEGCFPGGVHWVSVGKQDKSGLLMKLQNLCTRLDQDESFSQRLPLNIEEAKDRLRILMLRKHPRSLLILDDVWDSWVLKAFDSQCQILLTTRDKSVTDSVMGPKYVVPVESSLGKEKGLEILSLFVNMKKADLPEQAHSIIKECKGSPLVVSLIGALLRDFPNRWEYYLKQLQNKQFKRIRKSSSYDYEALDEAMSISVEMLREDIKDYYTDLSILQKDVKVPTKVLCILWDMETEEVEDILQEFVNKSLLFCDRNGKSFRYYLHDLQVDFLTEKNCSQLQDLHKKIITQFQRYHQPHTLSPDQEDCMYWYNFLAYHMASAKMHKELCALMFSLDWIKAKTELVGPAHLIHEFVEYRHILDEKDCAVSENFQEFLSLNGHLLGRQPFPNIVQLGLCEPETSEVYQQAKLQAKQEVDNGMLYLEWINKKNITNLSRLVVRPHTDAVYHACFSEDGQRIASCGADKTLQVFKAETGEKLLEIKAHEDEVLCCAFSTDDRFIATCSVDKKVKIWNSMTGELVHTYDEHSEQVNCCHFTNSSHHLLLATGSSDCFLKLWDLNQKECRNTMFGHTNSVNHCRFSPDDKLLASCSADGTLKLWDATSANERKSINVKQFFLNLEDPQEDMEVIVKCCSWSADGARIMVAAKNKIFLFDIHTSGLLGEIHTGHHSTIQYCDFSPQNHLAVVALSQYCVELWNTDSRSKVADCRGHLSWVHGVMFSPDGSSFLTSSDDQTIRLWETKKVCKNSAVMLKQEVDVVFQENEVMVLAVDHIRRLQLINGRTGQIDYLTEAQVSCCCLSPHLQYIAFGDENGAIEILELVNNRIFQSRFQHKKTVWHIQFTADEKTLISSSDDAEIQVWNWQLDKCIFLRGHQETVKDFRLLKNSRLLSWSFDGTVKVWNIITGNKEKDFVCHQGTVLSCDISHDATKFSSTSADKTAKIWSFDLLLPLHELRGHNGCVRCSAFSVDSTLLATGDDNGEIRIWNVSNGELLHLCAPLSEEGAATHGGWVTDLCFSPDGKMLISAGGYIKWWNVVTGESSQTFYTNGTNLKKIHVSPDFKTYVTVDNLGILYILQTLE

Caspase-3 = molecular target: T3, Caspase-3 (Homo sapiens, UniProt P42574); assay: SAR Analysis of small molecule inhibitors of Sentrin-specific proteases (SENPs) using a Caspase-3 Selectivity assay. [Related pubchem assays (depositor defined):AID2540, AID2599, AID434973, AID489001]; assay type: functional
T3 sequence (P42574 whole entry): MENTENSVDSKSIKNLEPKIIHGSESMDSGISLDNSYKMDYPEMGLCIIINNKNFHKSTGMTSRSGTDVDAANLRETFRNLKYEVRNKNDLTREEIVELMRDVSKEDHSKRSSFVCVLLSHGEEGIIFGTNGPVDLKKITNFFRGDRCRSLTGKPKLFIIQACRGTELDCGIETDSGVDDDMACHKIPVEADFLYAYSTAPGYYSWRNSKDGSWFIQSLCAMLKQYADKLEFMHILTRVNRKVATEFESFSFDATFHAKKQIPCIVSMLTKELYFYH

[7] = molecular target: T4, Sentrin-specific protease 6 (Homo sapiens, UniProt Q9GZR1); assay: SAR Analysis of small molecule inhibitors of Sentrin-specific protease 6 (SENP6) using a Luminescent assay. [Related pubchem assays (depositor defined):AID2582, AID2599]; assay type: functional
T4 sequence (Q9GZR1 whole entry): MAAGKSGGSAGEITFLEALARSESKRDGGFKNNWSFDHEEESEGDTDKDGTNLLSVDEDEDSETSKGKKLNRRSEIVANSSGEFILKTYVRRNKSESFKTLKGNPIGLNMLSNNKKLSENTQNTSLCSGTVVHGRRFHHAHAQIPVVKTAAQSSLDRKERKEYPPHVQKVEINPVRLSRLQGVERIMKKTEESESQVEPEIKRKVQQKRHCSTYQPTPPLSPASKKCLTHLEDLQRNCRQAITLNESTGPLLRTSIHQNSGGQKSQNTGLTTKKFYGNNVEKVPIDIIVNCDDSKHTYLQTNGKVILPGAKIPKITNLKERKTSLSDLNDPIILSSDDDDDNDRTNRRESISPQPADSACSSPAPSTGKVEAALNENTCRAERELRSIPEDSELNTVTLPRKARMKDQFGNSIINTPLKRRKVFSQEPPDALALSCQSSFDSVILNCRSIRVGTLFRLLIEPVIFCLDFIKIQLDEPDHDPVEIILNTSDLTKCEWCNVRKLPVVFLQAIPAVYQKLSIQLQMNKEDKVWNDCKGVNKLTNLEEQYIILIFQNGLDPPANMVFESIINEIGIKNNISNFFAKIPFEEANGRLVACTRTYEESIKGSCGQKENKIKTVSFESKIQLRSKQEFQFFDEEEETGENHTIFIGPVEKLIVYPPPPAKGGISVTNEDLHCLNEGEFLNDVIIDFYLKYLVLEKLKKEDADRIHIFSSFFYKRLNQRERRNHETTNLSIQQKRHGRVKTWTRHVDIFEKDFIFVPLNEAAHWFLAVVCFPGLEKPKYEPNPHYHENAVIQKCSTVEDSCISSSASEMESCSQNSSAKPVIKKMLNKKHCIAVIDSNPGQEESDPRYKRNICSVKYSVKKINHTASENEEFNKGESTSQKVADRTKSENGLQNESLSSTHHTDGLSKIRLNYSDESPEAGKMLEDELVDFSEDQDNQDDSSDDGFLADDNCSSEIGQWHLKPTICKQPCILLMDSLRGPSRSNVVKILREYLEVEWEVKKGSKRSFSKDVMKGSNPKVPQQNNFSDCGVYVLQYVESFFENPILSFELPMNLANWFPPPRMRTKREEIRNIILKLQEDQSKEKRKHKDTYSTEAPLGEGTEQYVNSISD

[8] = molecular target: T5, Sentrin-specific protease 7 (Homo sapiens, UniProt Q9BQF6); assay: inhibition of human SENP7 cleavage activity – biochemical, luminescence, SAR follow-up (AID 504497); assay type: functional
T5 sequence (Q9BQF6 whole entry): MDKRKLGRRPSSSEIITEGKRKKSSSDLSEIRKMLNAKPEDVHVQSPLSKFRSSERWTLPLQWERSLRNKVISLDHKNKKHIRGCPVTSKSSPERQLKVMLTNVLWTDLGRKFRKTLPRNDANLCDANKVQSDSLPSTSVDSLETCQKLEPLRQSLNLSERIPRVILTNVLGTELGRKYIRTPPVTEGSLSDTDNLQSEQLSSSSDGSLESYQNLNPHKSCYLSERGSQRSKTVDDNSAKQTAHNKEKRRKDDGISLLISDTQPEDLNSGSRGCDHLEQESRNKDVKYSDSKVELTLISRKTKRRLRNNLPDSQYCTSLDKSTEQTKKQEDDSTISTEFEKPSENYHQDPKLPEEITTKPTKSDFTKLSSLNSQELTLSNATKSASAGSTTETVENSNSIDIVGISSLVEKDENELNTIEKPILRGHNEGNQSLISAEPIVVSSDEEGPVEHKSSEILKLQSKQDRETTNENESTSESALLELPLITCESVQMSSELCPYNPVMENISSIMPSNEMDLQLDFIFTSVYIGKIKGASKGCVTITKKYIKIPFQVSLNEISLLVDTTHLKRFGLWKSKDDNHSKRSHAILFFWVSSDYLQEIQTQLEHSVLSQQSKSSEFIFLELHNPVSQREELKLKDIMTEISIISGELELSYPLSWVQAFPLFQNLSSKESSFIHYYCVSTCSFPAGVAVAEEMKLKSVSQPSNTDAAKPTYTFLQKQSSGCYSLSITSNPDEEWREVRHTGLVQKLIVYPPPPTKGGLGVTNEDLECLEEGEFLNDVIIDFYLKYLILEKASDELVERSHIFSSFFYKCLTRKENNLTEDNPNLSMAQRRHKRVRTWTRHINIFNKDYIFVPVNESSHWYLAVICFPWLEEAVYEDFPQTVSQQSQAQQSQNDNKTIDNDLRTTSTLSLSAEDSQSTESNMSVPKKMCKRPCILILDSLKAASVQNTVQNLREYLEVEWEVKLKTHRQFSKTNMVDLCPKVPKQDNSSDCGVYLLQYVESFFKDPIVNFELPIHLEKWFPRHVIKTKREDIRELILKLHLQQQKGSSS

[9] = molecular target: T6, Sentrin-specific protease 8 (Homo sapiens, UniProt Q96LD8); assay: inhibition of human SENP8 cleavage activity – biochemical, luminescence, SAR follow-up (AID 504501); assay type: functional
T6 sequence (Q96LD8 whole entry): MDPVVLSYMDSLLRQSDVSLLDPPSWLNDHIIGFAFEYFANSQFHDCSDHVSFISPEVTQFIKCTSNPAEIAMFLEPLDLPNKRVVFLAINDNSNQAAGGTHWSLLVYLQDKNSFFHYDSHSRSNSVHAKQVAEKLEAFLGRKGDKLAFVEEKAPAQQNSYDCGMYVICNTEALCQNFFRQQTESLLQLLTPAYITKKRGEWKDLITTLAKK

SMILES: CS(=O)(=O)NN1C(=O)c2ccccc2NC1c1cccc2cccnc12 (stereo unspecified)
EC50 [1]: 0.697 µM (active) | EC50 [2]: > 160 µM (inactive) | EC50 [3]: > 160 µM (inactive) | EC50 [4]: > 180 µM (inactive)

SMILES: COc1cc(-c2cc(C(=O)Nc3ccccc3N3CCOCC3)c3ccccc3n2)cc(OC)c1OC
IC50 [5]: 0.11 µM (active) | IC50 (H9c2): > 79 µM (inactive)

IC50 [6]: > 100 µM (inactive)
SMILES: Cc1cccc(C)c1NC(=O)Cn1cc(C=O)c2ccccc21

IC50 (Caspase-3): > 99 µM (inactive) | IC50 [7]: > 99 µM (inactive) | IC50 [8]: > 99 µM (inactive)
SMILES: COc1ccc(C2CCCN2C(=O)c2sc3ccccc3c2Cl)cc1OC (stereo unspecified)
IC50 [9]: > 99 µM (inactive)
